Columns and labels:
Experiment in all cases: KINOMEscan competition binding
Conditions in all cases: compound 10.0 µM
DDR2 (human) = DDR2 (human) (UniProt Q16832)
MAP4K3 (human) = MAP4K3 (human) (UniProt Q8IVH8)
RPS6KA6 KD2 (human) = RPS6KA6 KD2 (human) (UniProt Q9UK32)
EGFR (human) = EGFR (human) (UniProt P00533)
PLK2 (human) = PLK2 (human) (UniProt Q9NYY3)
SRPK3 (human) = SRPK3 (human) (UniProt Q9UPE1)
EPHB2 (human) = EPHB2 (human) (UniProt P29323)
MAK (human) = MAK (human) (UniProt P20794)
NEK9 (human) = NEK9 (human) (UniProt Q8TD19)
MAPK1 (human) = MAPK1 (human) (UniProt P28482)
Chain of MAPK1 (human) (P28482 whole entry, looked up): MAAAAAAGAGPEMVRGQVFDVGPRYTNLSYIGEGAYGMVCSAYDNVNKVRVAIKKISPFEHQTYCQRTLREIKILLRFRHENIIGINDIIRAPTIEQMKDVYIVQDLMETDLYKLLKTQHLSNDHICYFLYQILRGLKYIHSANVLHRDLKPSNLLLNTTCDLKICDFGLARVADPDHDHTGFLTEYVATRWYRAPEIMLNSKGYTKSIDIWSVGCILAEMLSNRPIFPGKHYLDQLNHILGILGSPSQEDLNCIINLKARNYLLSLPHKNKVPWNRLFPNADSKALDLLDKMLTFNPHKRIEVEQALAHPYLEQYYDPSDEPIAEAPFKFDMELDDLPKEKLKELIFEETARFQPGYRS

MET (human) = MET (human) (UniProt P08581)
CDK19 (human) = CDK19 (human) (UniProt Q9BWU1)
FLT4 (human) = FLT4 (human) (UniProt P35916)
MAP3K9 (human) = MAP3K9 (human) (UniProt P80192)
[1] = molecular target: JAK1 JH2 pseudokinase (human) (UniProt P23458)
Chain of JAK1 JH2 pseudokinase (human) (P23458 whole entry, looked up): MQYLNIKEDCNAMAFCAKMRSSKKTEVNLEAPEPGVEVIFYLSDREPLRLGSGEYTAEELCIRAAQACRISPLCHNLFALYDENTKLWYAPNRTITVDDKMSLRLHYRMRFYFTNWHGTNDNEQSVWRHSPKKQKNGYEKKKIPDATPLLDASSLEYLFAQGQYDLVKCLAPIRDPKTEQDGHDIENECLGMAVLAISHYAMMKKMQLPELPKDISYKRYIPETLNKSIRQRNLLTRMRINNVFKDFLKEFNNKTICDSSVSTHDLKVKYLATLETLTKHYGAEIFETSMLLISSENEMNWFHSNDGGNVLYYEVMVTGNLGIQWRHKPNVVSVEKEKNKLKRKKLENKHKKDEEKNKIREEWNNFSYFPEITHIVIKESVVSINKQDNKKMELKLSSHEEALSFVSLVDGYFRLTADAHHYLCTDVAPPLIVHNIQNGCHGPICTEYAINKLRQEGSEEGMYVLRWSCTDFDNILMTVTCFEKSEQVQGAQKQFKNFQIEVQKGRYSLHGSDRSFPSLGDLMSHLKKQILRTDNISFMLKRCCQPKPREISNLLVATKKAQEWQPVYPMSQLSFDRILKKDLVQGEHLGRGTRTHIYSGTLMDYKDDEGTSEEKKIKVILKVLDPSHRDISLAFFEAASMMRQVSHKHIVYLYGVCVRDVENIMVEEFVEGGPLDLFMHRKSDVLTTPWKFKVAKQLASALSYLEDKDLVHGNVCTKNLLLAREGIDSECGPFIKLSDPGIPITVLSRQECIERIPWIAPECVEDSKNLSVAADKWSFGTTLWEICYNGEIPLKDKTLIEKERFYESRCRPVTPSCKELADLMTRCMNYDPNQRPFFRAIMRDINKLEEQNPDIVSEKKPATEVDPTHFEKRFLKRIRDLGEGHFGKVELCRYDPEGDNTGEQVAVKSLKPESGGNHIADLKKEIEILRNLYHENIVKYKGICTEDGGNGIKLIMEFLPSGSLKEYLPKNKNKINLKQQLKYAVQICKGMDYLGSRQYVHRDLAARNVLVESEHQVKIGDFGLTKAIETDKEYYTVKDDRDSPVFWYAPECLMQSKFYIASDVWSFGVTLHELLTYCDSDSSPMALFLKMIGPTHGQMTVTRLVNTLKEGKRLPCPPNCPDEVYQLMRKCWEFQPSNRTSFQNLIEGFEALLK

[2] = test system: PIK3CA (human), P42336 [H1047L]
CDC2L2 (human) = CDC2L2 (human) (UniProt Q9UQ88)
DAPK2 (human) = DAPK2 (human) (UniProt Q9UIK4)
PRKD2 (human) = PRKD2 (human) (UniProt Q9BZL6)
RIPK4 (human) = RIPK4 (human) (UniProt P57078)
Chain of RIPK4 (human) (P57078 whole entry, looked up): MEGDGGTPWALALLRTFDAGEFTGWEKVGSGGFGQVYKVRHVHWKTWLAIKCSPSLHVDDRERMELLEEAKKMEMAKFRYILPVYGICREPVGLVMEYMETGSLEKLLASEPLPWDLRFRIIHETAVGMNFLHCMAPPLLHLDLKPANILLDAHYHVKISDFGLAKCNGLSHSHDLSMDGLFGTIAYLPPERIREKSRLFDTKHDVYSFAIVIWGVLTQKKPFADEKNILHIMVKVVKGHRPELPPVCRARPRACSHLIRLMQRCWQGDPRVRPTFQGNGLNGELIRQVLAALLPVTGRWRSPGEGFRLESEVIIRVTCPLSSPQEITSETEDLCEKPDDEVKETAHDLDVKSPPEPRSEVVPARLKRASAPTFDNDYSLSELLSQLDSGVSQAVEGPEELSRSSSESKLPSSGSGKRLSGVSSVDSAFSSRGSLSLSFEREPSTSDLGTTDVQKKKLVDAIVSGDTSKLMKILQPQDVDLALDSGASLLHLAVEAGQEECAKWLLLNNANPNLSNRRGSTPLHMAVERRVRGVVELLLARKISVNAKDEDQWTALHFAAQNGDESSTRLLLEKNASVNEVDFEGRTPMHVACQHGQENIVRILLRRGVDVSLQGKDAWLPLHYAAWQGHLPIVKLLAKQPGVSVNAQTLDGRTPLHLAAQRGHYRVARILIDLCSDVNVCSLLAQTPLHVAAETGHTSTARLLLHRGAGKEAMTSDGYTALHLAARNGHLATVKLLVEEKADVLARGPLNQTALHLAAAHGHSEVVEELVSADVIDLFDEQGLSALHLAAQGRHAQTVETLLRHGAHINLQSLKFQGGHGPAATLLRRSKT

MELK (human) = MELK (human) (UniProt Q14680)
Chain of MELK (human) (Q14680 whole entry, looked up): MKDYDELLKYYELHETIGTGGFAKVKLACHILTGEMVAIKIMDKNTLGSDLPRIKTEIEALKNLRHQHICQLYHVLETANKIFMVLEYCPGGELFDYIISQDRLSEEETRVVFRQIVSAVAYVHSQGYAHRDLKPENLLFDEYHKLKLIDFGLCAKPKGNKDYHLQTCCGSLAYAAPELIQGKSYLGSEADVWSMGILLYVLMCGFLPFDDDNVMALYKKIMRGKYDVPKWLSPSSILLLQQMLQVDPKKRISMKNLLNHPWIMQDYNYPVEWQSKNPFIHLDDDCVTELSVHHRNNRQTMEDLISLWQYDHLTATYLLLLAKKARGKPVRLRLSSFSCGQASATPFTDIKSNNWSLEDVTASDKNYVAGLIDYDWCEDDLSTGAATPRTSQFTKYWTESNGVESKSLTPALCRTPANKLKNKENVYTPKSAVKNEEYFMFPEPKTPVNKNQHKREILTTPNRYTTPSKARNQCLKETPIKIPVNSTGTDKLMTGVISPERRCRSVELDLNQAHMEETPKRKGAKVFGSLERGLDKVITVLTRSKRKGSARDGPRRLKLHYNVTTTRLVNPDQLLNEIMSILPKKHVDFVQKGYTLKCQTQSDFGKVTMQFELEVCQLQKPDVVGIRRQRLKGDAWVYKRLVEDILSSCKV

DCLK3 (human) = DCLK3 (human) (UniProt Q9C098)
CDK5 (human) = CDK5 (human) (UniProt Q00535)
EPHB3 (human) = EPHB3 (human) (UniProt P54753)
AURKB (human) = AURKB (human) (UniProt Q96GD4)
MAP2K2 (human) = MAP2K2 (human) (UniProt P36507)
RPS6KA1 KD2 (human) = RPS6KA1 KD2 (human) (UniProt Q15418)
ERBB4 (human) = ERBB4 (human) (UniProt Q15303)
MAP3K10 (human) = MAP3K10 (human) (UniProt Q02779)
MAP3K13 (human) = MAP3K13 (human) (UniProt O43283)
PIK3C2G (human) = PIK3C2G (human) (UniProt O75747)
[3] = molecular target: JAK2 JH1 catalytic (human) (UniProt O60674)
STK32C (human) = STK32C (human) (UniProt Q86UX6)
FGFR4 (human) = FGFR4 (human) (UniProt P22455)
ERBB2 (human) = ERBB2 (human) (UniProt P04626)
PRKD3 (human) = PRKD3 (human) (UniProt O94806)
DSTYK (human) = DSTYK (human) (UniProt Q6XUX3)
Chain of DSTYK (human) (Q6XUX3 whole entry, looked up): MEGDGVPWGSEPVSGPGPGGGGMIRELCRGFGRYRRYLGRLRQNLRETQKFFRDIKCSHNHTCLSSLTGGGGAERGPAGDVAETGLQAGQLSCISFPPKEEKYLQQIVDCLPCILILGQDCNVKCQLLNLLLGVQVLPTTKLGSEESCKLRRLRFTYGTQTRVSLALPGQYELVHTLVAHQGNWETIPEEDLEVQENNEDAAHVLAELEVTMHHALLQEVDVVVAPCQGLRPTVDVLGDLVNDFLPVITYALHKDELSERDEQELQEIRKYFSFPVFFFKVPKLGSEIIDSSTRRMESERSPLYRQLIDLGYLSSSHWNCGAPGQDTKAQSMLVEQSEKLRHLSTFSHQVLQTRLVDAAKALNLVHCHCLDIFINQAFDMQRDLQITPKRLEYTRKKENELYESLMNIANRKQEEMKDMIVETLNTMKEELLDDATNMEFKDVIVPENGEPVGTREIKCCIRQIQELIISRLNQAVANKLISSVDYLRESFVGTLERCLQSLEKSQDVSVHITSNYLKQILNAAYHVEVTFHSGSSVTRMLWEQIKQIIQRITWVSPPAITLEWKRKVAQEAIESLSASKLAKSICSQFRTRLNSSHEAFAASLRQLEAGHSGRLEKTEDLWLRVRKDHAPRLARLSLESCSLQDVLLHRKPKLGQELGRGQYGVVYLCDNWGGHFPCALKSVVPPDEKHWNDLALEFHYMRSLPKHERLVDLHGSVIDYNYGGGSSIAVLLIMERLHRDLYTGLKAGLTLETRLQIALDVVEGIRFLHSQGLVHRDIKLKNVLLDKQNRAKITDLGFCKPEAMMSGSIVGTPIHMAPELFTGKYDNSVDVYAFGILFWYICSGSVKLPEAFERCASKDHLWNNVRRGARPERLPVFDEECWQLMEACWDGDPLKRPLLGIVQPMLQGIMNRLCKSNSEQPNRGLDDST

SNRK (human) = SNRK (human) (UniProt Q9NRH2)
[4] = test system: KIT (human), P10721 [D816H]
RPS6KB1 (human) = RPS6KB1 (human) (UniProt P23443)
Chain of RPS6KB1 (human) (P23443 whole entry, looked up): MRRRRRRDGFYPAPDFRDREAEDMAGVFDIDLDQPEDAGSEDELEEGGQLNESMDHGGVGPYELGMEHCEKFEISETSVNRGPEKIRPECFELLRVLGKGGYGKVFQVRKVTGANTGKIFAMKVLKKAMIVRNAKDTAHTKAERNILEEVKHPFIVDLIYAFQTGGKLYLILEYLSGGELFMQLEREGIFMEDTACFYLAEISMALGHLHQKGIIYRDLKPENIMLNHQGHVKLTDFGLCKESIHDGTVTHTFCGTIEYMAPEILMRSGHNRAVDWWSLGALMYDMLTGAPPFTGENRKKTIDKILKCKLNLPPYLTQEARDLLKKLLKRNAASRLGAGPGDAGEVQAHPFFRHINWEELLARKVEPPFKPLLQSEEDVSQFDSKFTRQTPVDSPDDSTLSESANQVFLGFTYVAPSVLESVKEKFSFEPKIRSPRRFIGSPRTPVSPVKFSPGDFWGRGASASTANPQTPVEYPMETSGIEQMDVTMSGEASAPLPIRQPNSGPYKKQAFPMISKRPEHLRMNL

Chain of SRPK3 (human) (Q9UPE1 whole entry, looked up): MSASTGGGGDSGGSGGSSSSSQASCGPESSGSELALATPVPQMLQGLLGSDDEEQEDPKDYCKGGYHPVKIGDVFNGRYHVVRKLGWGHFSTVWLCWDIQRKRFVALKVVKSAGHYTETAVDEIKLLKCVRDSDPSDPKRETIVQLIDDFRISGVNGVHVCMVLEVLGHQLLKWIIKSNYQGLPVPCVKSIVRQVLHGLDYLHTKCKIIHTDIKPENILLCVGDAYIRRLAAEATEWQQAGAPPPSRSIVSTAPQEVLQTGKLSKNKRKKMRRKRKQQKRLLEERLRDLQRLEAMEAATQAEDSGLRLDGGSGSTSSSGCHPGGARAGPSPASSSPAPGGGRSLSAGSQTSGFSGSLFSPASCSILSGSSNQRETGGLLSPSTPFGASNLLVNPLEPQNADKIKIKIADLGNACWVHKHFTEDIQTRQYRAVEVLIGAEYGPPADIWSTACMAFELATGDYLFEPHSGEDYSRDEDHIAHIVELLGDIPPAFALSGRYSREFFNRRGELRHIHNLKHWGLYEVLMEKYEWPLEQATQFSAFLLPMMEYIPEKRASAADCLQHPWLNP

Row | Compound | kinase still bound, per cent of control (DDR2 (human)) [%] | kinase still bound, per cent of control (MAP4K3 (human)) [%] | kinase still bound, per cent of control (RPS6KA6 KD2 (human)) [%] | kinase still bound, per cent of control (PLK2 (human)) [%] | kinase still bound, per cent of control (SRPK3 (human)) [%] | kinase still bound, per cent of control (MAK (human)) [%] | kinase still bound, per cent of control (NEK9 (human)) [%] | kinase still bound, per cent of control (MAPK1 (human)) [%] | kinase still bound, per cent of control (MET (human)) [%] | kinase still bound, per cent of control (CDK19 (human)) [%] | kinase still bound, per cent of control (MAP3K9 (human)) [%] | kinase still bound, per cent of control [2] [%] | kinase still bound, per cent of control (CDC2L2 (human)) [%] | kinase still bound, per cent of control (DAPK2 (human)) [%] | kinase still bound, per cent of control (PRKD2 (human)) [%] | kinase still bound, per cent of control (RIPK4 (human)) [%] | kinase still bound, per cent of control (DCLK3 (human)) [%] | kinase still bound, per cent of control (CDK5 (human)) [%] | kinase still bound, per cent of control (EPHB3 (human)) [%] | kinase still bound, per cent of control (AURKB (human)) [%] | also measured
1 | Cc1cn(-c2cc(C(=O)Nc3ccc(C)c(NC(=O)c4ccno4)c3)cc(C(F)(F)F)c2)cn1 | 15 | 100 | 100 | 100 | 100 | 100 | 100 | 100 | 100 | 100 | 100 | 100 | 100 | 100 | 100 | 100 | 100 | 100 | 27 | 100 | kinase still bound, per cent of control (EGFR (human)): 100%; kinase still bound, per cent of control (EPHB2 (human)): 9%; kinase still bound, per cent of control (FLT4 (human)): 100%; kinase still bound, per cent of control [1]: 100%; kinase still bound, per cent of control (MELK (human)): 100%; kinase still bound, per cent of control (MAP2K2 (human)): 100%; kinase still bound, per cent of control (RPS6KA1 KD2 (human)): 100%; kinase still bound, per cent of control (ERBB4 (human)): 100%; kinase still bound, per cent of control (MAP3K10 (human)): 100%; kinase still bound, per cent of control (MAP3K13 (human)): 100%; kinase still bound, per cent of control (PIK3C2G (human)): 100%; kinase still bound, per cent of control [3]: 100%; kinase still bound, per cent of control (STK32C (human)): 100%; kinase still bound, per cent of control (FGFR4 (human)): 100%; kinase still bound, per cent of control (ERBB2 (human)): 100%; kinase still bound, per cent of control (PRKD3 (human)): 100%
2 | CCN(CCO)CCCOc1ccc2c(Nc3cc(CC(=O)Nc4cccc(F)c4)[nH]n3)ncnc2c1 | 27 | 51 | 64 | 93 | 100 | 92 | 100 | 100 | 46 | 100 | 98 | 73 | 5 | 89 | 80 | 41 | 86 | 100 | 100 | 0.2 | kinase still bound, per cent of control (EPHB2 (human)): 93%; kinase still bound, per cent of control (FLT4 (human)): 38%; kinase still bound, per cent of control [1]: 100%; kinase still bound, per cent of control (DSTYK (human)): 14%; kinase still bound, per cent of control (SNRK (human)): 100%; kinase still bound, per cent of control (MELK (human)): 47%; kinase still bound, per cent of control (MAP2K2 (human)): 21%; kinase still bound, per cent of control (RPS6KA1 KD2 (human)): 69%; kinase still bound, per cent of control [4]: 34%; kinase still bound, per cent of control (ERBB4 (human)): 4%; kinase still bound, per cent of control (MAP3K10 (human)): 92%; kinase still bound, per cent of control (MAP3K13 (human)): 100%; kinase still bound, per cent of control (PIK3C2G (human)): 21%; kinase still bound, per cent of control [3]: 58%; kinase still bound, per cent of control (STK32C (human)): 78%; kinase still bound, per cent of control (FGFR4 (human)): 100%; kinase still bound, per cent of control (ERBB2 (human)): 13%; kinase still bound, per cent of control (RPS6KB1 (human)): 13%; kinase still bound, per cent of control (PRKD3 (human)): 63%
3 | CC(=O)c1c(C)c2cnc(Nc3ccc(N4CCNCC4)cn3)nc2n(C2CCCC2)c1=O | 56 | 20 | 38 | 14 | 23 | 76 | 76 | 73 | 36 | 100 | 78 | 25 | 78 | 2.4 | 0.7 | 79 | 9.6 | 48 | 91 | 48 | kinase still bound, per cent of control (DSTYK (human)): 5%; kinase still bound, per cent of control (SNRK (human)): 94%; kinase still bound, per cent of control (MELK (human)): 40%; kinase still bound, per cent of control (MAP2K2 (human)): 9.1%; kinase still bound, per cent of control (RPS6KA1 KD2 (human)): 38%; kinase still bound, per cent of control [4]: 56%; kinase still bound, per cent of control (ERBB4 (human)): 83%; kinase still bound, per cent of control (MAP3K10 (human)): 93%; kinase still bound, per cent of control (MAP3K13 (human)): 82%; kinase still bound, per cent of control (PIK3C2G (human)): 20%; kinase still bound, per cent of control [3]: 0.65%; kinase still bound, per cent of control (STK32C (human)): 94%; kinase still bound, per cent of control (ERBB2 (human)): 79%; kinase still bound, per cent of control (RPS6KB1 (human)): 36%; kinase still bound, per cent of control (PRKD3 (human)): 0.75%
4 | CCc1nc(-c2cccc(C)c2)c(-c2ccnc(NC(=O)c3ccccc3)c2)s1 | 16 | 80 | 4.3 | 100 | 100 | 70 | 100 | 96 | 94 | 91 | 94 | 100 | 90 | 88 | 46 | 90 | 90 | 100 | 81 | 100 | kinase still bound, per cent of control (EPHB2 (human)): 80%; kinase still bound, per cent of control (FLT4 (human)): 27%; kinase still bound, per cent of control [1]: 70%; kinase still bound, per cent of control (DSTYK (human)): 100%; kinase still bound, per cent of control (SNRK (human)): 100%; kinase still bound, per cent of control (MAP2K2 (human)): 90%; kinase still bound, per cent of control (RPS6KA1 KD2 (human)): 28%; kinase still bound, per cent of control [4]: 57%; kinase still bound, per cent of control (ERBB4 (human)): 2.8%; kinase still bound, per cent of control (MAP3K10 (human)): 100%; kinase still bound, per cent of control (MAP3K13 (human)): 100%; kinase still bound, per cent of control (PIK3C2G (human)): 40%; kinase still bound, per cent of control [3]: 100%; kinase still bound, per cent of control (STK32C (human)): 35%; kinase still bound, per cent of control (FGFR4 (human)): 100%; kinase still bound, per cent of control (ERBB2 (human)): 43%; kinase still bound, per cent of control (RPS6KB1 (human)): 90%; kinase still bound, per cent of control (PRKD3 (human)): 26%

From the kinase profiling compilation of Christmann-Franck et al. (2016)
